Test results as given in patent publication US12099061B2, “Nidogen 1 as a diagnostic marker and therapeutic target of hepatocellular carcinoma, composition and methods thereof” (THE UNIVERSITY OF HONG KONG, priority 2020, dated 2024).

System: MHCC97L cells
Experiment: EV secretion of MHCC97L cells treated with Tipifarnib
Format: cell-based, human
Details: 1 μM Tipifarnib for 48 hr; EVs isolated from conditioned medium
Protocol: FIGS. 11A-11B Reduction of EV secretion attenuates liver tumor formation. (A) Quantification of EVs isolated from conditioned medium of MHCC97L treated with 1 μM Tipifarnib or DMSO vehicle for 48 hr. The analysis was done in triplicate. (B) Image of dissected liver of mice subjected to orthotopic liver injection of Matrigel/MHCC97L (1×10^6 cells/injection) pretreated with 48-hr DMSO or Tipifarnib (1 μM) (n=6). Measurement of tumor volume is shown. Data are represented as mean±SEM. *P<0.05 and ***P<0.001 from Student's t test.
Protein lysates were obtained by cell lysis with NETN lysis buffer (0.1% NP40, 25 mM Tris-HCl, 50 mM […], 0.2 mM EDTA), supplemented with 10% cOmplete™ protease inhibitor cocktail and 10% PhosStop phosphatase inhibitor cocktail (Roche Applied Science). Bradford reagent (Bio-Rad Corporation) using bovine serum albumin as standard concentration was used to quantify protein amount. […] Chemiluminescent signals were detected by ECL™ Western Blotting Detection Reagents (Amersham). […] The level of EV-CD63 was expressed as amount of CD63 over EV protein amount (μg/μg) (w/w). […] The amount of isolated EVs was quantified. […] After 6 weeks post injection, mice were sacrificed and liver tumor volume was measured using a caliper and calculated using the formula: volume=L×W^2×0.5 (L, the largest diameter; W, the smallest diameter). […]

Cn1cncc1[C@@](N)(c1ccc(Cl)cc1)c1ccc2c(c1)c(-c1cccc(Cl)c1)cc(=O)n2C [tipifarnib, Tipifarnib]
reduction of EV secretion from MHCC97L cells: up to 50%
